Results on five compounds are retold here after ChEMBL document CHEMBL1201862, “PubChem BioAssay data set” (2004).

Each structure is given as a SMILES string.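 Method: 48-hour compound exposure of cells in 96-well plates, five concentrations, linear interpolation of endpoints. Here, GI50 denotes the concentration required for 50% inhibition of growth.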 The source made the active and inactive calls. No stated cut-off is given here; in the data, active = GI50 up to about 1.1 µM and inactive = higher.

Some test systems named below: SF-539; HOP-92; OVCAR-8; SR; COLO 205; M19-MEL; ACHN; NCI-H522; HOP-62; UO-31; SNB-75; HCT-116; HL-60; NCI-H460; A549; NCI-H226; OVCAR-4; RPMI-8226; Hs-578T; T47D.
Holding throughout (test): DTP human tumour cell line panel, 48 h

The term GI50 denotes the concentration giving 50% growth inhibition. `CC[C@@]1(O)C(=O)OCc2c1cc1n(c2=O)Cc2cc3c(N)cccc3nc2-1` [9-AMINOCAMPTOTHECIN]: the GI50 in the assay with SF-539 is < 0.01 µM (active); in the assay on HOP-92, 0.0356 µM (active); with OVCAR-8, 0.0148 µM (active); with SR it was < 0.215 µM (active); in the assay with COLO 205, 0.157 µM (active); in the assay on M19-MEL, 0.0198 µM (active). The GI50 with ACHN was < 0.01 µM (active); in the assay with NCI-H522, 0.0181 µM (active); with HOP-62, < 0.01 µM (active); with UO-31, 0.0175 µM (active); with SNB-75 it was < 0.0115 µM (active); in the assay on HCT-116, 0.0272 µM (active). For the same compound, the GI50 in the assay on HL-60 is < 0.01 µM (active); in the assay on NCI-H460, < 0.01 µM (active); in the assay with A549, 0.0188 µM (active); with NCI-H226, 0.0102 µM (active); in the assay with OVCAR-4, 0.238 µM (active); in the assay on RPMI-8226, 0.0764 µM (active). In addition, the GI50 with Hs-578T was 4.22 µM (inactive).
Take `COc1ccc2c(-c3cc4ccccc4o3)cc(=O)oc2c1`: the GI50 in the assay on SF-539 is 16.7 µM (inactive); with HOP-92, 24.3 µM (inactive); in the assay with OVCAR-8, 29.9 µM (inactive); in the assay with SR, > 100 µM (inactive); in the assay with COLO 205 it was > 100 µM (inactive); in the assay on M19-MEL, > 100 µM (inactive). In addition, the GI50 with ACHN was 39.4 µM (inactive); with T47D, > 55 µM (inactive); in the assay with NCI-H522, 37.2 µM (inactive); with HOP-62, 13.3 µM (inactive); in the assay with UO-31 it was 15 µM (inactive); in the assay on SNB-75 it was 8.17 µM (inactive). The GI50 in the assay with HCT-116 is 42.3 µM (inactive); with HL-60, > 100 µM (inactive); with NCI-H460 it was 44.7 µM (inactive); with A549 it was 44 µM (inactive); in the assay on NCI-H226 it was 58.5 µM (inactive); in the assay on OVCAR-4, 22.8 µM (inactive). For the same compound, the GI50 in the assay with RPMI-8226 was > 88.7 µM (inactive); with Hs-578T, 11.4 µM (inactive).
`CC(C)c1c2[nH]c3ccccc3c2c(C(C)C)c2[nH]c3ccccc3c12`: the GI50 is > 100 µM (inactive) in the assay on SF-539; 22.4 µM (inactive) in the assay on HOP-92; > 100 µM (inactive) in the assay on OVCAR-8; 24.7 µM (inactive) in the assay on SR; 51.9 µM (inactive) in the assay on COLO 205; > 100 µM (inactive) in the assay on M19-MEL. Besides, the GI50 with ACHN was 91.8 µM (inactive); in the assay on NCI-H522 it was > 78.7 µM (inactive); with HOP-62 it was > 100 µM (inactive); in the assay with UO-31, > 100 µM (inactive); in the assay on SNB-75, > 89.7 µM (inactive); in the assay with HCT-116, > 67.3 µM (inactive). Further, the GI50 in the assay with HL-60 was 16.5 µM (inactive); with NCI-H460, > 57.7 µM (inactive); in the assay on A549, > 100 µM (inactive); with NCI-H226 it was > 47.3 µM (inactive); in the assay on OVCAR-4, > 45.3 µM (inactive); in the assay on RPMI-8226, 17.7 µM (inactive).
As to `Nc1nc2c3c(ncn3CC(O)CO2)n1` (stereo not drawn), the GI50 in the assay on SF-539 was > 100 µM (inactive); in the assay on HOP-92 it was > 100 µM (inactive); with OVCAR-8 it was > 100 µM (inactive); in the assay on SR, > 100 µM (inactive); in the assay on COLO 205, > 100 µM (inactive); with M19-MEL it was 6.31 µM (inactive). Also, the GI50 was > 100 µM (inactive) with ACHN; > 100 µM (inactive) with NCI-H522; > 100 µM (inactive) with HOP-62; > 100 µM (inactive) in the assay on UO-31; 10.8 µM (inactive) with SNB-75; > 100 µM (inactive) in the assay on HCT-116. Also, the GI50 with HL-60, with NCI-H460, in the assay on A549, in the assay on NCI-H226, in the assay on OVCAR-4 and in the assay on RPMI-8226 was > 100 µM (inactive) throughout.
Turning to `O/N=C1/CCC/C1=C\c1ccccc1`, the GI50 in the assay on SF-539 is > 100 µM (inactive); in the assay on HOP-92, > 100 µM (inactive); in the assay on OVCAR-8, > 100 µM (inactive); in the assay with SR, 12.4 µM (inactive); in the assay on COLO 205 it was > 100 µM (inactive); in the assay on M19-MEL, > 10 µM (inactive). The GI50 was > 100 µM (inactive) in the assay on ACHN; 31 µM (inactive) in the assay on NCI-H522; > 100 µM (inactive) with HOP-62; > 100 µM (inactive) with UO-31; 18.5 µM (inactive) in the assay with SNB-75; > 100 µM (inactive) with HCT-116. The GI50 with HL-60 was 28.6 µM (inactive); with NCI-H460 it was > 100 µM (inactive); in the assay with A549, > 100 µM (inactive); with NCI-H226, > 100 µM (inactive); with OVCAR-4 it was > 100 µM (inactive); in the assay with RPMI-8226, > 100 µM (inactive).
